Test system: bovine tubulin
Test: Measurement of tubulin sulfhydryl groups (DTNB)
Type: biochemical
Details: flubendazole 100 μM, vinblastine 10 μM
Protocol: A representative figure is shown.
The ability of microtubule target drugs to alter tubulin structure was assessed by measuring the number of reactive cysteine residues using the sulfhydryl reagent 5,5′-Dithio-bis(2-nitrobenzoic acid) (DTNB; Sigma) as previously described^19,29. […] After incubation, DTNB was added (100 μM final concentration) and the absorbance was measured in a 1 cm path length cuvette at 412 nm for 60 min at 37° C. The number of sulfhydryl groups were determined by using a molar extinction coefficient for DTNB of 13 600 (M^−1, cm^−1).^29

Structure (SMILES): COC(=O)Nc1nc2ccc(C(=O)c3ccc(F)cc3)cc2[nH]1 [flubendazole]
- reduction in number of reactive cysteines compared to buffer control: 5.2±2.6
